This is an account of results in PMC8476755 (Frontiers in Chemistry, 2021).

Molecules are shown by their SMILES. “Also recorded” adds a separate entry of the source. Where two headings read alike, the source gives them in different places.

One assay deals with T1, BGT1 (Homo sapiens, UniProt P48065).
T1 construct: expressed in transfected cells
T1 sequence (P48065 1-614): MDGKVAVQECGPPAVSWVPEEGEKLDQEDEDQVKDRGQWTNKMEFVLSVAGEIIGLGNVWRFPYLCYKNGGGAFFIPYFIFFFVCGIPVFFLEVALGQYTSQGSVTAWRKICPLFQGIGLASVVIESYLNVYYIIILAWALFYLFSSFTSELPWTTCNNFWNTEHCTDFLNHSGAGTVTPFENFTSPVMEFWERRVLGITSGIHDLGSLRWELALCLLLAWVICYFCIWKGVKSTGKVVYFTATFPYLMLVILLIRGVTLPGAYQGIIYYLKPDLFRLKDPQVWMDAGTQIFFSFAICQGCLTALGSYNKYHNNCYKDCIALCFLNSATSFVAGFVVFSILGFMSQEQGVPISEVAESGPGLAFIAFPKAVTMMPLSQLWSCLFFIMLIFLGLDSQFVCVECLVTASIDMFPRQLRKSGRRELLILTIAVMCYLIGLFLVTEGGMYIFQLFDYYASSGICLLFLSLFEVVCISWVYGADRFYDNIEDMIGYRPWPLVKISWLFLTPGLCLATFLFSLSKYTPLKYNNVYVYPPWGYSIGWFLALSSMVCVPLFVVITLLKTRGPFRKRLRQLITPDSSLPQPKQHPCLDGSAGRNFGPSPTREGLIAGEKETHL
Put plainly: FLIPR membrane potential (FMP) assay, CHO cells stably expressing BGT1. The class given is cell-based. The following applies: for Kb: Gaddum-Schild analysis; for Inhibitor activity: in the presence of GABA EC50 concentration ([…] µM); for Substrate activity (translocation by BGT1): tested as substrates, without GABA.

The target of assay [1] is T2, human α1β2γ2 GABAA receptors (Homo sapiens, UniProt P14867+P47870).
T2 construct: expressed in transfected cells
T2 sequence (P14867 28-456): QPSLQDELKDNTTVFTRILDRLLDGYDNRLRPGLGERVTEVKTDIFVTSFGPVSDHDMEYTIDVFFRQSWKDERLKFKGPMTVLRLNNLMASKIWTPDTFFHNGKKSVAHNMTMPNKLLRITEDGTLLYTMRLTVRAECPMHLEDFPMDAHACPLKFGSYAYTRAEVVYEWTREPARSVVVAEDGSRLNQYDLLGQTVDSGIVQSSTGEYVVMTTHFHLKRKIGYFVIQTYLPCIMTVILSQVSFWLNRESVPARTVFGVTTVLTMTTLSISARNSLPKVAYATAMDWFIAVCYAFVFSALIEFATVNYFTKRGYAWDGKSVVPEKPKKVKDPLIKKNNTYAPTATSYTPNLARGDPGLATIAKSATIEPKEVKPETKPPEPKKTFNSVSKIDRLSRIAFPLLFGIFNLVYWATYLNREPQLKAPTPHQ
T2 sequence (P47870 25-512 limits assumed): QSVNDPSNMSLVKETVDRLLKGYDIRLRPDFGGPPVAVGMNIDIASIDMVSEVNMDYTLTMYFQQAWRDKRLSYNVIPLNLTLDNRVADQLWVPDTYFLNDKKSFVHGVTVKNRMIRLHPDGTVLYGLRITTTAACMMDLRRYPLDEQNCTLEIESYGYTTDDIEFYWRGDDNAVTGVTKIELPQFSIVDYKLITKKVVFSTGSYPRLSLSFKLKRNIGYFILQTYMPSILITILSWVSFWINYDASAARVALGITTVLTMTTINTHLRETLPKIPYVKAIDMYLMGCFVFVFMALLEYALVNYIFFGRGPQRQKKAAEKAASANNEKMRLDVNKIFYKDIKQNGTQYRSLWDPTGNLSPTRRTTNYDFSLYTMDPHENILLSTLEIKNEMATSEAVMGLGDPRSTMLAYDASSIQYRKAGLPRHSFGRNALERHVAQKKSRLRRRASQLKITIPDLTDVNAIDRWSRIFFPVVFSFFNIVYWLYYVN
T2 sequence (P18507 40-475 partner): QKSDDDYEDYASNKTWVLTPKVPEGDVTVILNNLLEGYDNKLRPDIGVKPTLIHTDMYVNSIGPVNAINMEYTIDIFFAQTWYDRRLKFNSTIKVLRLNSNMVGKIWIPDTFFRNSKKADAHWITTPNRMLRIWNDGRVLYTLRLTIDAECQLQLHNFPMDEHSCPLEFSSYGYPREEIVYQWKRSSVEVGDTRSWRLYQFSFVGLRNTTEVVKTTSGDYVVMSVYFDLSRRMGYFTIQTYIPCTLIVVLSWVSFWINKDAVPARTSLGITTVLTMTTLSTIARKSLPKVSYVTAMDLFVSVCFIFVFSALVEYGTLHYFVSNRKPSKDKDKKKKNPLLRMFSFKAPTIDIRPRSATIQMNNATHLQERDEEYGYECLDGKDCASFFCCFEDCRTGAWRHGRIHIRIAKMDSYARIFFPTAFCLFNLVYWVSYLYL
Put plainly: FMP assay at GABAA receptors in HEK293 cells. Format: cell-based. The conditions noted are these: for Activity at α1β2γ2 GABAA receptors: 2 tested up to 100 µM. An excerpt: For this purpose we chose the major GABAA receptor subtype in the brain, α1β2γ2, and used the FMP assay for functional assessment as previously reported ([Falk-Petersen et al., 2020]). This assay detects changes in membrane potential for an average cell population through changes in fluorescence of a membrane pre-equilibrated fluorescent blue dye. It therefore provides an indirect measure of activity with the advantage of being able to discern between GAT substrates and inhibitors ([Kragholm et al., 2013]; [Al-Khawaja et al., 2014]; [Kickinger et al., 2020]).
The tsA201 cell line (a transformed HEK293 cell line), the Flp-In CHO cell lines stably expressing human (h) GATs and the HEK293 cell line stably expressing human α1β2γ2 GABAA receptors have been described previously and were cultured accordingly ([Al-Khawaja et al., 2014]; [Falk-Petersen et al., 2020]). […]
The FMP assay performed on human α1β2γ2 GABAA receptors in HEK293 cells was performed as described and data analyzed accordingly ([Falk-Petersen et al., 2020]). […] Test compound solutions were prepared at 4x concentration in assay buffer and added to ligand plates pre-heated at 37°C for 10–15 min in the FLEXstation3 plate reader (Molecular Devices). After incubation, 33.3 µL test compound solution (4x) was automatically transferred to each well in the cell plate and the signal was measured for 90 s by measuring emission at 560 nm caused by excitation at 530 nm. […] Data obtained in the FMP assay are given as relative changes in fluorescence units (ΔRFU) by subtracting the average of the baseline fluorescence signal from the peak fluorescence signal after compound addition. […] A Gaddum-Schild plot was performed according to the equation: log(dr-1) = log(B)+pA2, where B is the concentration of the inhibitor, pA2 is the negative logarithm of the dissociation constant KB, and the dose-ratio dr is equal to the EC′50/EC50, where EC′50 and EC50 are determined in the presence and absence of the different inhibitor concentrations, respectively. […]

For orientation: EC50 means the concentration needed to bring the measured effect to its halfway point. Higher therefore signals a need for much substance. Consider `N[C@@]12CC[C@H](C(=O)O)[C@@H]1C2` [bicyclo-GABA, (1S,2S,5R)-5-aminobicyclo[3.1.0]hexane-2-carboxylic acid], for which, on BGT1 (n = 4, read-out: KB), the Kb amounted to 470 nM. On BGT1 (read-out: pKB (converted)), the Kb is 398 nM. Moreover, the “Preference for BGT1 over α1β2γ2 GABAA receptors” value on BGT1 (according to the FMP data) is 13 times. Moreover, on BGT1 (co-applied with increasing concentrations of GABA, n = 4), the “Schild slope (Gaddum-Schild analysis)” value is recorded as 1.02. On BGT1, the Inhibitor activity result is “behaved as inhibitors” and the “Substrate activity (translocation by BGT1)” value is given as “no increase in fluorescence signals”. Further, the “Activity at α1β2γ2 GABAA receptors” value in assay [1] is “low micromolar agonistic activity”. It took 5100 nM to reach a half-maximal effect in assay [1] (agonist activity, HEK293 cells) (EC50).
On to `CN[C@@]12CC[C@H](C(=O)O)[C@@H]1C2` [compound 2], for which, on BGT1, the Inhibitor activity result was “behaved as inhibitors” and the “Substrate activity (translocation by BGT1)” value was “no increase in fluorescence signals”. In addition, the “Activity at α1β2γ2 GABAA receptors” value in assay [1] is “completely devoid of activity; also recorded: inactive”.
